The record followed here is ChEMBL document CHEMBL5316338, “Discovery of Novel PTP1B Inhibitors with Once-Weekly Therapeutic Potential for Type 2 Diabetes: Design, Synthesis, and In Vitro and In Vivo Investigations of BimBH3 Peptide Analogues” (J Med Chem, 2023).

Series [1] has as its system Mus musculus. As to the kind of experiment: Antidiabetic activity against over-night fasted C57BL/ks db/db mouse assessed as suppression of increased blood glucose concentration at 1 uM/kg, sc pretreated with compound for 4 weeks followed by insulin stimulation and measured for 90 mins by insulin tolerance test. Conditions: time 40410.0 min. The class given is functional, organism-based.

A short description of series [2]: Stability of compound assessed as Proteinase K (unknown origin) mediated compound degradation by measuring fold change of half-life by HPLC analysis relative to BimBH312-mer peptide. In kind it is ADME.
A further series concerns the target T1, carboxypeptidase A (Homo sapiens, UniProt P15085).
T1 sequence (P15085 whole entry): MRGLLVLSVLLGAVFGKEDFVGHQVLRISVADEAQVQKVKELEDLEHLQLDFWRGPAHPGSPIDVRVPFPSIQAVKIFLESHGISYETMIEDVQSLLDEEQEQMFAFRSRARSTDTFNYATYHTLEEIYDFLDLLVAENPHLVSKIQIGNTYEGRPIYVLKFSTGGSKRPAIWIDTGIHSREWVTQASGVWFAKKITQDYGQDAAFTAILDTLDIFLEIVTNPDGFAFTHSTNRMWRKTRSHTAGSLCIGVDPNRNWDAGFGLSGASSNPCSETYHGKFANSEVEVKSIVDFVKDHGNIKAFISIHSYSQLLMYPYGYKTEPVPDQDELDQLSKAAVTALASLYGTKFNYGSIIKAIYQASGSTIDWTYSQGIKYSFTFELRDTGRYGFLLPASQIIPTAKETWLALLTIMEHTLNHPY
As to the kind of experiment: Stability of compound assessed as carboxypeptidase A (unknown origin) mediated compound degradation by measuring half-life by RP-HPLC analysis. The class given is ADME.

The subject of series [3] is Mus musculus. As to the kind of experiment: Antidiabetic activity against C57BL/Ks db/db mouse assessed as redcution in fasting blood glucose level at 1 umol/kg, sc administered once a week and measured on day 26 by glucometer analysis (reference value: 31.4 +/- 2.2 […]). In kind it is functional. Conditions: dose 1 µmol/kg, time 26 day.
Series [4] has as its system Mus musculus. As to the kind of experiment: Antidiabetic activity against sc dosed C57BL/Ks db/db mouse assessed as reduction in glucagon level at 1 umol/kg by ELISA analysis. Conditions: dose 1.0 µmol/kg. The class given is functional, organism-based.
For series [5], the system named is Mus musculus. Briefly: Antidiabetic activity against C57BL/Ks db/db mouse assessed as redcution in fasting blood glucose level at 1 umol/kg, sc administered once a week and measured on day 15 by glucometer analysis (reference value: 27.3 +/- 2.4 […]). In kind it is functional. Conditions: dose 1 µmol/kg, time 15 day.
The target in series [6] is T2, Tyrosine-protein phosphatase non-receptor type 2 (Homo sapiens, UniProt P17706).
T2 sequence (P17706 whole entry): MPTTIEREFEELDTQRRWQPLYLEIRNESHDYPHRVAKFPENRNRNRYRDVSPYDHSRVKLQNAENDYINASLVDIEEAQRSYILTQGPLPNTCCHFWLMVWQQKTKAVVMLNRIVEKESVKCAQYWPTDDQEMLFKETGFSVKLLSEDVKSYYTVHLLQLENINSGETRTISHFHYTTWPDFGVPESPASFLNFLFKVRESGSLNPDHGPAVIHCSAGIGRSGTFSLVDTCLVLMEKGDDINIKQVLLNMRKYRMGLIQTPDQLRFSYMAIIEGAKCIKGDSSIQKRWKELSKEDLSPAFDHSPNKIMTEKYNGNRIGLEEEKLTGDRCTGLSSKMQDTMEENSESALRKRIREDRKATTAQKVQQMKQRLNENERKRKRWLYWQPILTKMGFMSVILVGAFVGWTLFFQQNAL
Briefly: Inhibition of recombinant human TC-PTP (1 to 314 residues) expressed in baculovirus infected insect cells using pNPP as substrate assessed as substrate hydrolysis. Set-up: species or system Insect cell.

Series [7] relates to Mus musculus. As to the kind of experiment: Antidiabetic activity against C57BL/Ks db/db mouse assessed as redcution in fasting blood glucose level at 1 umol/kg, sc administered once a week and measured on day 8 by glucometer analysis (reference value: 27.7 +/- 3.7 […]). Conditions: dose 1 µmol/kg, time 8 day. In kind it is functional.
The next series addresses T3, Carboxypeptidase A1 (Homo sapiens, UniProt P15085).
T3 sequence (P15085 whole entry): T1 sequence (P15085 whole entry)
Briefly: Stability of compound assessed as carboxypeptidase A (unknown origin) mediated compound degradation by measuring fold change of half-life by RP-HPLC analysis relative to BimBH312-mer peptide. In kind it is ADME.

In series [8] the target is T4, Tyrosine-protein phosphatase non-receptor type 1 (Homo sapiens) (UniProt P18031).
T4 sequence (whole entry): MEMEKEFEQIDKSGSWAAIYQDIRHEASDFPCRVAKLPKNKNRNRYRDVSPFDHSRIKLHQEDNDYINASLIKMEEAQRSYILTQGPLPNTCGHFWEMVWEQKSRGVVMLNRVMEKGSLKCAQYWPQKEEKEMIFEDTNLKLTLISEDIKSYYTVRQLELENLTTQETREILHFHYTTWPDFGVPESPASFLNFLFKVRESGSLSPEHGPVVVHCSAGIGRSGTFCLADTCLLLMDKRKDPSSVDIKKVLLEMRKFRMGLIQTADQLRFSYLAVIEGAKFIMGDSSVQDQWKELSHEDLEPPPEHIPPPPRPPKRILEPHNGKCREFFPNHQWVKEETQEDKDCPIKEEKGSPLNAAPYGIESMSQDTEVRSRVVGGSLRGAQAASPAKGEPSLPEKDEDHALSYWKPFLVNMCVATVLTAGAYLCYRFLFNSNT
As to the kind of experiment: Inhibition of N-terminal His tagged recombinant human PTP1B expressed in Escherichia coli using pNPP as substrate assessed as substrate hydrolysis at 40 umol/L relative to control. Conditions: dose 40.0 µmol/L.

For the next series, the species on record is Homo sapiens. As to the kind of experiment: Selectivity index, ratio of IC50 for inhibition of recombinant human TC-PTP (1 to 314 residues) expressed in baculovirus infected insect cells to IC50 for inhibition of N-terminal His-tagged recombinant human PTP1B expressed in Escherichia coli.
Series [9] deals with Mus musculus. Briefly: Antidiabetic activity against C57BL/Ks db/db mouse assessed as redcution in fasting blood glucose level at 1 umol/kg, sc administered once a week and measured on day 24 by glucometer analysis (reference value: 30.2 +/- 3.2 […]). Conditions: dose 1 µmol/kg, time 24 day. In kind it is functional.
Series [10] is described as follows: Stability of compound assessed as Pepsin (unknown origin) mediated compound degradation by measuring fold change of half-life by HPLC analysis relative to BimBH312-mer peptide. The class given is ADME. Conditions: human.
The subject of series [11] is Mus musculus. As to the kind of experiment: Antidiabetic activity against C57BL/Ks db/db mouse assessed as redcution in fasting blood glucose level at 1 umol/kg, sc administered once a week and measured on day 28 by glucometer analysis (reference value: 32.4 +/- 1.1 […]). The class given is functional. Conditions: dose 1 µmol/kg, time 28 day.
Series [12] concerns the target T5, Tyrosine-protein phosphatase non-receptor type 2 (Homo sapiens) (UniProt P17706).
T5 sequence (whole entry): T2 sequence (P17706 whole entry)
Briefly: Inhibition of recombinant human TC-PTP (1 to 314 residues) expressed in baculovirus infected insect cells using pNPP as substrate assessed as substrate hydrolysis at 50 umol/L relative to control. Conditions: Insect cell, dose 50.0 µmol/L.

Series [13] has as its system Mus musculus. Briefly: Antidiabetic activity against sc dosed C57BL/Ks db/db mouse assessed as reduction in C-peptide level at 1 umol/kg by ELISA analysis. Conditions: dose 1.0 µmol/kg. In kind it is functional, organism-based. On the technique in general: An ELISA detects its analyte on a solid surface through an enzyme-linked reagent.
In series [14] the target is Chymotrypsin (Homo sapiens, UniProt Q99895+P17538+P40313+Q6GPI1). As to the kind of experiment: Stability of compound assessed as chymotrypsin (unknown origin) mediated compound degradation by measuring fold change of half-life by RP-HPLC analysis relative to BimBH312-mer peptide. The class given is ADME, protein assay.
The subject of the next series is Proteinase K. Briefly: Stability of compound assessed as Proteinase K (unknown origin) mediated compound degradation by measuring half-life by HPLC analysis. The class given is ADME.
The subject of series [15] is Mus musculus. Briefly: Antidiabetic activity against C57BL/Ks db/db mouse assessed as redcution in fasting blood glucose level at 1 umol/kg administered subcutaneously and measured immediately by glucometer analysis (reference value: 19.0 +/- 2.7 […]). In kind it is functional. Conditions: dose 1 µmol/kg; route sc.
For series [16], the system named is Mus musculus. As to the kind of experiment: Antidiabetic activity against over-night fasted C57BL/ks db/db mouse assessed as suppression of increased blood glucose concentration at 1 uM/kg, sc pretreated with compound for 4 weeks followed by oral glucose stimulation and measured upto 120 mins by oral glucose tolerance test. The class given is functional, organism-based. Conditions: time 40440.0 min.

The test system of series [17] is Mus musculus. As to the kind of experiment: Antidiabetic activity against sc dosed C57BL/Ks db/db mouse assessed as reduction in serum insulin level at 1 umol/kg by ELISA analysis. The class given is functional, organism-based. Conditions: dose 1.0 µmol/kg.
Series [18] has as its target chymotrypsin (Homo sapiens, UniProt P17538+P40313+Q6GPI1+Q99895). Briefly: Stability of compound assessed as chymotrypsin (unknown origin) mediated compound degradation by measuring half-life by RP-HPLC analysis. The class given is ADME, protein assay.
Series [19] deals with T6, Tyrosine-protein phosphatase non-receptor type 1 (Homo sapiens, UniProt P18031).
T6 sequence (P18031 whole entry): T4 sequence (whole entry)
Briefly: Inhibition of N-terminal His tagged recombinant human PTP1B expressed in Escherichia coli using pNPP as substrate assessed as substrate hydrolysis.

Another series deals with Pepsin. Briefly: Stability of compound assessed as Pepsin (unknown origin) mediated compound degradation by measuring half-life by HPLC analysis. The class given is ADME. Conditions: human.
Series [20] concerns Mus musculus. Briefly: Antidiabetic activity against C57BL/Ks db/db mouse assessed as redcution in fasting blood glucose level at 1 umol/kg, sc administered once a week and measured on day 22 by glucometer analysis (reference value: 27.4 +/- 1.8 […]). The class given is functional. Conditions: dose 1 µmol/kg, time 22 day.

Each structure is given as a SMILES string. Calls of active or inactive are those of the source. Square brackets hold non-standard residues; d marks the D form. Peptide text beside a SMILES is read from it. * marks the point of attachment. ξ: configuration not given here. C20 diacid = O=C(O)CCCCCCCCCCCCCCCCCCC(=O)*; Stearoyl = CCCCCCCCCCCCCCCCCC(=O)*; ξR = N=C(N)NCCCC(N)C(=O)O

What is called half-life is the time needed for the level to fall by half in the phase considered. As usually defined, the IC50 is the midpoint of a concentration-inhibition curve. In general, inhibition refers to the change of the read-out against control, counted positive when it falls. In the case of `CC[C@H](C)[C@H](NC(=O)CCCCCCCCCCCCCCCCCCC(=O)O)C(=O)N[C@@H](C)C(=O)N[C@@H](CCC(N)=O)C(=O)N[C@@H](CCC(=O)O)C(=O)N[C@@H](CC(C)C)C(=O)N[C@@H](CCCNC(=N)N)C(=O)NC(CCCNC(=N)N)C(=O)N[C@H](C(=O)NCC(=O)N[C@@H](CC(=O)O)C(=O)N[C@@H](CCC(=O)O)C(=O)N[C@@H](Cc1ccccc1)C(=O)O)[C@@H](C)CC` (stereo partly drawn) ({C20 diacid}-IAQELR[ξR]IGDEF-OH), the outcome in the series on Mus musculus [1], in the series with Mus musculus [4], with Mus musculus [13], in the series with Mus musculus [16] and in the series on Mus musculus [17] was Active. In addition, the “fold change (FC)” value was 18 in [2], 7.8 at Carboxypeptidase A1, 69.1 in series [10] and 11.6 at Chymotrypsin [14]. Also, the half-life is 0.25 h at carboxypeptidase A, 0.9 h with Proteinase K, 0.5 h on chymotrypsin [18] and 1.52 h with Pepsin. Besides, the “Fasting blood glucose level” value in the series on Mus musculus [3] came to 19 mmol/L; in the series with Mus musculus [7], 11.3 mmol/L; in the series with Mus musculus [9], 16 mmol/L; with Mus musculus [11], 19.2 mmol/L; with Mus musculus [15], 18.6 mmol/L. Also, in the series on Mus musculus [5], the Fasting blood glucose is 9.7 mmol/L. In addition, the IC50 is greater than 50000 nM in [6] and 443 nM in [19]. Further, the inhibition in series [8] was greater than 50%; in series [12], less than 50%. In the series listed under Homo sapiens, the Ratio IC50 is greater than 113.
`CCCCCCCCCCCCCCCCCC(=O)N[C@H](C(=O)N[C@@H](C)C(=O)N[C@@H](CCC(N)=O)C(=O)N[C@@H](CCC(=O)O)C(=O)N[C@@H](CC(C)C)C(=O)N[C@@H](CCCNC(=N)N)C(=O)NC(CCCNC(=N)N)C(=O)N[C@H](C(=O)NCC(=O)N[C@@H](CC(=O)O)C(=O)N[C@@H](CCC(=O)O)C(=O)N[C@@H](Cc1ccccc1)C(=O)O)[C@@H](C)CC)[C@@H](C)CC` (stereo partly drawn) (Stearoyl-IAQELR[ξR]IGDEF-OH): the outcome in the series on Mus musculus [1], with Mus musculus [4], with Mus musculus [13], with Mus musculus [16] and with Mus musculus [17] was Active. For the same compound, the “fold change (FC)” value in series [2] amounted to 28.6; on Carboxypeptidase A1 it was 549.1; in series [10], 334.5; on Chymotrypsin [14], 170.5. Moreover, the half-life at carboxypeptidase A was 17.6 h; with Proteinase K it was 1.43 h; on chymotrypsin [18], 7.33 h; in the series with Pepsin, 7.36 h. The “Fasting blood glucose level” value with Mus musculus [3] worked out at 16.3 mmol/L; in the series on Mus musculus [7], 11.8 mmol/L; in the series with Mus musculus [9], 18.1 mmol/L; with Mus musculus [11], 19.8 mmol/L; with Mus musculus [20], 15.6 mmol/L; with Mus musculus [15], 20.4 mmol/L. For the same compound, the Fasting blood glucose in the series on Mus musculus [5] stood at 12.8 mmol/L. In addition, the half-maximal inhibitory concentration (IC50) in [6] turned out to be 13600 nM; in [19], 120 nM. In addition, the inhibition in series [8] is greater than 50%. Further, the Ratio IC50 in the series filed under Homo sapiens turned out to be 113.
